Source: the supplement of paper PMC10307832

Tests used:
Test in all cases: relative viability (nuclei count vs DMSO), 5 days (fraction); higher = more cells survive
[1] = compound: C[C@@H](N)c1ccc(C(=O)Nc2ccnc3[nH]ccc23)cc1 + C[C@@H](Oc1cc(-c2cnn(C3CCNCC3)c2)cnc1N)c1c(Cl)ccc(F)c1Cl [Crizotinib] (partner 1 µM)
Method in brief: (§1)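 Relative viability was taken as the ratio of nuclei in treated wells to nuclei in vehicle wells. Lung cancer cell lines in 1536-well plates received compounds by pin tool one day after seeding, either one drug alone or a fixed anchor-drug dose plus five library-drug doses (not always all listed) in √10 steps. Nuclei were counted on 4× images after 5 days of treatment, and values are medians of duplicate plates.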

[2] = compound: C[C@@H](N)c1ccc(C(=O)Nc2ccnc3[nH]ccc23)cc1 + CS(=O)(=O)CCNCc1ccc(-c2ccc3ncnc(Nc4ccc(OCc5cccc(F)c5)c(Cl)c4)c3c2)o1 [Lapatinib] (partner 2 µM)
Method in brief: as §1

Tanzisertib + Dasatinib = compound: O[C@H]1CC[C@H](Nc2ncc3nc(Nc4c(F)cc(F)cc4F)n([C@H]4CCOC4)c3n2)CC1 [Tanzisertib] + Cc1nc(Nc2ncc(C(=O)Nc3c(C)cccc3Cl)s2)cc(N2CCN(CCO)CC2)n1 [Dasatinib] (partner 0.075 µM)
Method in brief: as §1

Cell Line | relative viability ([1]; first compound 0.04 µM) | relative viability ([1]; first compound 0.1265 µM) | relative viability ([1]; first compound 0.4 µM) | relative viability ([1]; first compound 1.265 µM) | relative viability ([1]; first compound 4 µM) | relative viability ([2]; first compound 0.04 µM) | relative viability ([2]; first compound 0.1265 µM) | relative viability ([2]; first compound 0.4 µM) | relative viability ([2]; first compound 4 µM) | relative viability (Tanzisertib + Dasatinib; first compound 0.08 µM) | relative viability (Tanzisertib + Dasatinib; first compound 0.253 µM) | relative viability (Tanzisertib + Dasatinib; first compound 0.8 µM) | relative viability (Tanzisertib + Dasatinib; first compound 2.53 µM) | relative viability (Tanzisertib + Dasatinib; first compound 8 µM) | relative viability ([2]; first compound 1.265 µM)
CAL-12T | 0.795 | 0.78 | 0.845 | 0.529 | 0.252 | 0.801 | 0.811 | 0.886 | 0.875 | 0.453 | 0.343 | 0.375 | 0.314 | 0.319 | 
A-427 | 0.875 | 0.882 | 0.959 |  | 0.894 | 0.968 | 1.07 | 1 | 0.885 | 0.778 | 0.684 | 0.65 | 0.646 | 0.808 | 
HARA | 1.18 | 1.13 | 1.21 | 0.835 | 0.735 | 0.829 | 0.904 | 0.79 | 0.702 | 0.279 | 0.246 | 0.254 | 0.278 | 0.265 | 0.803
NCI-H1793 |  |  |  |  |  | 0.828 | 0.564 | 0.907 | 0.888 | 0.417 | 0.367 | 0.405 | 0.388 | 0.423 | 
NCI-H1623 |  |  |  |  |  |  |  |  |  | 0.59 | 0.572 | 0.608 | 0.455 | 0.514 | 
NCI-H2009 | 1.05 | 0.954 | 0.825 | 0.808 | 0.644 | 0.682 | 0.736 | 0.916 | 0.747 | 0.324 | 0.318 | 0.296 | 0.308 | 0.24 | 0.114
ABC-1 | 1.47 | 1.19 | 1.4 | 1.6 | 0.857 | 1.16 | 1.02 | 1.2 | 1.36 | 0.586 | 0.604 | 0.523 | 0.614 | 0.597 | 
IA-LM | 1.02 | 0.937 | 1.17 | 1.08 | 0.938 | 0.779 | 0.954 | 0.865 | 0.957 |  |  |  |  |  | 1.27
NCI-H322M | 0.881 | 0.944 | 1.09 |  | 1.08 | 0.807 | 0.63 | 0.665 | 0.824 | 0.243 | 0.248 | 0.275 | 0.249 | 0.262 | 
NCI-H1792 | 0.964 | 0.976 | 1.08 | 0.916 | 0.854 | 0.923 | 0.922 | 0.966 | 0.783 | 0.819 | 0.685 | 0.78 | 0.724 | 0.552 | 0.607
LXF-289 | 0.846 | 0.784 | 0.883 | 0.915 | 0.715 | 0.968 | 0.891 | 0.959 | 0.851 | 0.233 | 0.202 | 0.222 | 0.212 | 0.215 | 1.02
HCC-827 | 0.928 | 0.957 | 0.925 | 0.941 | 0.795 | 0.233 | 0.203 | 0.168 | 0.196 | 0.457 | 0.26 | 0.35 | 0.201 | 0.105 | 0.246
EMC-BAC-2 | 0.806 | 0.793 | 0.707 | 0.764 | 0.655 | 0.86 | 0.896 | 0.898 | 0.897 | 0.315 | 0.321 | 0.328 | 0.351 | 0.299 | 0.986
